In test [1] the test system is osteoclasts in PTH-treated mouse calvariae. As to the kind of experiment: Calvaria histology: osteoclast number and size. The class given is cell-based. The following applies: PTH 1-34 treated mouse calvariae. From the text: To confirm the findings in the calvarial bone resorption assay employing calcium release from culture mouse calvariae, selected bones were fixed in 10% neutral buffered formalin and demineralized in 5% formic acid with 5% formalin. The bones were dehydrated through an ascending series of ethanol concentrations, infiltrated in glycol methacrylate, and embedded using a JB-4 embedding kit (PolySciences, warrington, Pa.) (Liu et al., J. Bone Mineral Res. 5:973-82 (1990)). Cross sections of calvariae cut at 5 μm were obtained and stained for tartrate-resistant acid phosphatase (TRAP) activity and counterstained with merhyl green and thionin for cell morphology (Laiu et al., supra). Osteociasts were identified by TRAP stain, multinucleation, large cell size, and irregular cell shape. The number of osteoclasts were counted from endocranial and ectocranial bone surfaces and expressed as number/mm perimeter. The size of all the osteoclasts counted was also measured using a Bone Morphometry program (Liu et al., supra; Bain, et al., J. Bone Miner. Res. 8:435-42 (1993)). […]
Calcitonin mimetic compounds were evaluated in a similar fashion for their ability to suppress PTH-induced increases in osteoclast number and size. Cell toxicity (or death) was also evaluated by the appearance of pyknotic nuclei in a small number of bone cells. […]

The test system of test [2] is PTH-induced bone resorption in mouse calvaria. As to the kind of experiment: Calvarial assay to determine calcitonin escape. Format: cell-based. The following applies: for visual observation of the calvaria (resorption): final time point (98 hours). How it is done: Calvaria from 4-day old neonatal CD-1 mice (pregnant mice received from Charles River Laboratories) were trimmed with fine-tipped scissors to leave the parietal regions, including the sagittal suture. These trimmed bones were placed singly per well into 6-well culture cluster plates (Costar) with 1 mL/well of growth medium, Basel Medium (Eagle's with Earle's salts (GIBCO BRL, Gaithersburg, Md.)) containing 4.5 g/L glucose, 0.29 mg/mL L-glutamine, 1 mM sodium pyruvate, 15% heat-inactivated horse serum, antibiotics (penicillin-G 50 μg/mL, streptomycin 50 μg/mL, and neomycin 100 μg/mL) and containing 5 nM parathyroid hormone (PTH) 1-34 (Sigma), and rocked gently (RedRocker™) at 37° C. in a 5% CO2 humidified incubator for 17.5 hours preincubation. The concentration of PTH was chosen to insure maximum resorption. Calvaria designated as controls were pre-incubated in media without PTH.
Following preincubation, medium was removed and replaced with 1 mL/well of growth medium, as above, containing 20 or 30 μg/mL of the calcitonin mimetic 850-0231 in DMSO (final assay concentration of DMSO less than or equal to 1%), and compared with human calcitonin (hCT) tested at 0.5, 1.0, 5.0, […] All control wells contained a final assay concentration of DMSO equal to that present in the calcitonin mimetic treated wells.
Five bones were included in each sample group. Bones were incubated for a total of 98 hours. Time points were taken at 4, 8, 11, 24, 50.5, 72.5 and 98 hours. At each time point the media containing PTH was removed and fresh dilutions of compound in media were added to the calvaria. After the media was removed, total calcium measurements were made using a Nova 7/7+7 Electrolyte Analyzed (Nova Biomedical) according to the manufacturer's specifications. Induction of bone resorption by PTH is seen as an increase in the concentration of calcium in the growth medium due to degradation of the bone matrix.
A second calvaria bone resorption/escape assay was performed as described above with time points at 4, 8, 12, 16, 24, 49 and 73 hours. […] Histology was done on the PTH-treated and the 30 μg/mL calcitonin mimetic-treated calvaria.
A third calvaria bone resorption/escape assay was performed as described above with the following modifications. The calcitonin mimetic was tested at 5, 10 and 20 μg/mL. PTH was used at 10 nM to insure maximal resorption, hCT was tested at 2 nM and 8 nM and sCT was not included. Calvaria were pretreated with PTH for 19.75 hours. BrdU (bromodeoxyuridine, final concentration 10 μM) was added to the growth media for the final 17.5 hours, to identify proliferating cells. The lack of toxicity of 850-0231 will be verified by quartitating the number of proliferating BudU cells in histological sections of the calvaria. Time points were taken at 4, 8, 11, 24.5, 48 and 77 hours. A Novo CRT 10+ electrolyte analyzer (Nova Biomedical) was used to analyze the time point samples.
At the final time point, visual observations were made and photos taken to note the extent of resorption, and migration from the calvarial cells as a measure of toxicity. Again, human calcitonin lost its inhibitory effect between hours 11 and 24 (Table 5). The calvaria treated with the mimetic at 5 and 10 μg/mL also lost inhibitory effect between 11 and 24 hours.

A short description of test [3]: Induction of hypocalcemia in rats. Format: in vivo. The following applies: weanling male rats, tail vein, 0.5, 2.5, 5, 50 and 100 ng/rat, one hour. The protocol: This assay is based on the in vivo acute effect of calcitonin on osteoclasts, which causes rapid retraction of osteoclass from bone surface (typically within 30 minutes) and which results in decreased bone resorption. See Mills, et al., in Endocrinology 1971—Proceedings of the Third International Symposium, Taylor (ed), Heinemann Medical, London, pp. 79-88 (1972) and Singer, et al., Clin. Endocrinol. 5(Supp):333s-340s (1976); the disclosures of which are incorporated herein by reference. The assay method was modified from the method described by Sturtridge and Kumar, Lancet 545:725-6, 1968, the disclosure of which is incorporated herein by reference.
For the assay of hypocalcemic activity, weanling male Holtzman Sprague-Dawley rats (22 days old) are infused with vehicle (PBS with 1 mM HCl and 0.1% BSA), calcitonin or calcitonin mimetics through the tail vein. One hour later, blood samples are collected by orbital sinus puncture to determine serum levels of calcium. A decrease in serum calcium indicates a hypocalcemic response. The hypocalcemic response is dose-dependent as determined using salmon calcitonin (0.5, 2.5, 5, 50 and 100 ng/rat) in this model.

The conditions of test [4]: TPTX rats, co-administration with PTH, two days; cited from earlier work.

As for human calcitonin, in test [1], the “PTH-induced increase in number and size of osteoclasts” value was “suppressed”. For the same substance, the “time after which inhibitory effect on resorption was lost (escape)” value in test [2] (first assay, PTH 5 nM) was “approximately 24 hours”. Moreover, the “Cumulative Total Calcium” value in test [2] (first assay, PTH 5 nM, hCT 10 nM, 4 hours) was 0.02 mg %; in test [2] (first assay, PTH 5 nM, hCT 10 nM, 8 hours) it was 0.02 mg %; in test [2] (first assay, PTH 5 nM, hCT 10 nM, 11 hours) it was −0.02 mg %; in test [2] (first assay, PTH 5 nM, hCT 10 nM, 24 hours), 0.98 mg %; in test [2] (first assay, PTH 5 nM, hCT 10 nM, 50.5 hours), 4.96 mg %; in test [2] (first assay, PTH 5 nM, hCT 10 nM, 72.5 hours), 8.24 mg %. Moreover, the “Cumulative Total Calcium” value in test [2] (first assay, PTH 5 nM, hCT 10 nM, 98 hours) is recorded as 12.26 mg %; in test [2] (second assay, PTH 5 nM, hCT 10 nM, 4 hours), 0.10 mg %; in test [2] (second assay, PTH 5 nM, hCT 10 nM, 8 hours), −0.04 mg %; in test [2] (second assay, PTH 5 nM, hCT 10 nM, 12 hours), −0.06 mg %; in test [2] (second assay, PTH 5 nM, hCT 10 nM, 16 hours) it was 0.12 mg %; in test [2] (second assay, PTH 5 nM, hCT 10 nM, 24 hours), 0.92 mg %. The “Cumulative Total Calcium” value was determined as 5.70 mg % in test [2] (second assay, PTH 5 nM, hCT 10 nM, 49 hours); 10.60 mg % in test [2] (second assay, PTH 5 nM, hCT 10 nM, 73 hours); 0.01 mg % in test [2] (third assay, PTH 10 nM, hCT 2 nM, 4 hours); 0.10 mg % in test [2] (third assay, PTH 10 nM, hCT 2 nM, 8 hours); 0.10 mg % in test [2] (third assay, PTH 10 nM, hCT 2 nM, 11 hours); 1.22 mg % in test [2] (third assay, PTH 10 nM, hCT 2 nM, 24.5 hours). In addition, the “Cumulative Total Calcium” value in test [2] (third assay, PTH 10 nM, hCT 2 nM, 48 hours) is on record as 4.88 mg %; in test [2] (third assay, PTH 10 nM, hCT 2 nM, 77 hours), 9.55 mg %; in test [2] (third assay, PTH 10 nM, hCT 8 nM, 4 hours) it was 0.08 mg %; in test [2] (third assay, PTH 10 nM, hCT 8 nM, 8 hours), 0.24 mg %; in test [2] (third assay, PTH 10 nM, hCT 8 nM, 11 hours), 0.27 mg %; in test [2] (third assay, PTH 10 nM, hCT 8 nM, 24.5 hours) it was 1.45 mg %. The “Cumulative Total Calcium” value in test [2] (third assay, PTH 10 nM, hCT 8 nM, 48 hours) was 4.60 mg %; in test [2] (third assay, PTH 10 nM, hCT 8 nM, 77 hours), 9.74 mg %. Moreover, the “visual observation of the calvaria (resorption)” value in test [2] (first assay) was “less resorption”.
On to salmon calcitonin, for which, in test [2] (first assay, PTH 5 nM), the “time after which inhibitory effect on resorption was lost (escape)” value is “approximately 24 hours”. The “Cumulative Total Calcium” value in test [2] (first assay, PTH 5 nM, sCT 0.2 nM, 4 hours) amounted to 0.10 mg %; in test [2] (first assay, PTH 5 nM, sCT 0.2 nM, 8 hours) it was 0.18 mg %; in test [2] (first assay, PTH 5 nM, sCT 0.2 nM, 11 hours) it was 0.34 mg %; in test [2] (first assay, PTH 5 nM, sCT 0.2 nM, 24 hours), 1.76 mg %; in test [2] (first assay, PTH 5 nM, sCT 0.2 nM, 50.5 hours), 6.12 mg %; in test [2] (first assay, PTH 5 nM, sCT 0.2 nM, 72.5 hours) it was 9.88 mg %. Further, the “Cumulative Total Calcium” value was 13.22 mg % in test [2] (first assay, PTH 5 nM, sCT 0.2 nM, 98 hours); −0.02 mg % in test [2] (second assay, PTH 5 nM, sCT 1 nM, 4 hours); −0.16 mg % in test [2] (second assay, PTH 5 nM, sCT 1 nM, 8 hours); −0.20 mg % in test [2] (second assay, PTH 5 nM, sCT 1 nM, 12 hours); 0.08 mg % in test [2] (second assay, PTH 5 nM, sCT 1 nM, 16 hours); 0.92 mg % in test [2] (second assay, PTH 5 nM, sCT 1 nM, 24 hours). Also, the “Cumulative Total Calcium” value in test [2] (second assay, PTH 5 nM, sCT 1 nM, 49 hours) is recorded as 6.02 mg %; in test [2] (second assay, PTH 5 nM, sCT 1 nM, 73 hours), 11.56 mg %. In addition, the “visual observation of the calvaria (resorption)” value in test [2] (first assay) was “less resorption”. The “hypocalcemic response (decrease in serum calcium)” value in test [3] is “dose-dependent”. Further, the “PTH-induced serum, bone and kidney changes” value in test [4] is recorded as “attenuated”.

The values above are taken from US6395740B1, “Calcitonin mimetics” (ZymoGenetics, Inc., priority 1997, dated 2002).
